Laboratory results from PMC8564765 (Journal of medicinal chemistry, 2021).

System: MPO activity
Assay: MR imaging of CFA-induced subcutaneous inflammation
Format: in vivo
Conditions: wild-type mice, 0.3 mmol/kg

SMILES: CNC[C@H](O)[C@@H](O)[C@H](O)[C@H](O)CO.O=C([O-])CN1CCN(CC(=O)[O-])CCN(CC(=O)O)CCN(CC(=O)[O-])CC1.[Gd+3] [DOTA-Gd, gadoterate meglumine]
- Course of CNR over 60 min: decreased rapidly over time
